# Values quoted from earlier work in US6545056B1, “Aryl nitrone therapeutics and methods for treating inflammatory bowel disease” (Centaur Pharmaceuticals, Inc., priority 1999, dated 2003).
# Tested on: senescence-accelerated mice
structure (smiles),measurement,value
"CC(C)(C)/[N+]([O-])=C/c1ccccc1 [PBN, α-phenyl-t-butyl nitone]",increase of the life span,one third
